Measurements: patent publication US20070042938A1, “Use of dpiv and apn inhibitors for the treatment of dermatalogical diseases involving the hyperproliferation and modified differentiation conditions of fibroblasts” (priority 2003, published 2007)

Test system: human fibroblasts
Experiment: DNA synthesis of human fibroblasts (3[H]-thymidine incorporation)
Type: cell-based
Conditions: fibroblasts of healthy donors, 48 h incubation with inhibitor, then 3[H]-methyl thymidine for further 6 h; dose-dependent (FIG. 3)
Experimental: Fibroblasts of healthy donors were incubated for 48 h together with the above-mentioned inhibitors, and the DNA synthesis was determined subsequently by a measurement of the ^3[H]-thymidine incorporation, as described by Reihold et al. (Reinhold D et al.: Inhibitors of dipeptidyl peptidase IV induce secretion of transforming growth factor β1 in PWM-stimulated PBMNC and T cells, Immunology 1997, 91: 354-360).
For measuring the dose-dependent effect of inhibitors of DP IV (Lys[Z(NO2)] thiazolidide) and of aminopeptidase N (Actinonin) on the DNA synthesis of human fibroblasts, cells were incubated for 48 h with the indicated concentrations of the inhibitors. Subsequently, ^3[H]-Methyl thymidine was added to the culture medium, and the amount of ^3[H]-thymidine incorporated into the DNA was measured after further 6 h.

CCCCC[C@H](CC(=O)NO)C(=O)N[C@H](C(=O)N1CCC[C@H]1CO)C(C)C [Actinonin]
inhibition of the DNA synthesis of human fibroblasts: inhibited

N[C@@H](CCCCNC(=O)OCc1ccc([N+](=O)[O-])cc1)C(=O)N1CCSC1 [Lys[Z(NO2)] thiazolidide]
inhibition of the DNA synthesis of human fibroblasts: inhibited
